Measured values: US6511963B1 (priority 1992, dated 2003)
Values joined by “and” are separate entries in the source; they are usually repeats but may differ in a detail not shown here. Identical values can stand only once. Like-named read-outs stand apart in the source and are kept apart here. Ends that are not written are not given here. Peptide text beside a SMILES is read from it.

What was measured:
NMDA receptor [1] = target: NMDA receptor; parameters: species or system rat; settings: read-out: EC50 of Gly, [3H]MK-801 binding
NMDA receptor [2] = target: T1, NMDA receptor (Rattus norvegicus, UniProt P35439+Q00960); assay: biochemical; assay type: binding
T1 construct: other: test compound in the absence of spermine; concentration at 50% of maximum stimulation; % Sti; spermine = 100; other: with and without spermine; absence of spermine; % STI; absence

NMDA receptor [3] = assay type: binding, rat

T1 sequence (Q00960 27-1482, other chains not shown): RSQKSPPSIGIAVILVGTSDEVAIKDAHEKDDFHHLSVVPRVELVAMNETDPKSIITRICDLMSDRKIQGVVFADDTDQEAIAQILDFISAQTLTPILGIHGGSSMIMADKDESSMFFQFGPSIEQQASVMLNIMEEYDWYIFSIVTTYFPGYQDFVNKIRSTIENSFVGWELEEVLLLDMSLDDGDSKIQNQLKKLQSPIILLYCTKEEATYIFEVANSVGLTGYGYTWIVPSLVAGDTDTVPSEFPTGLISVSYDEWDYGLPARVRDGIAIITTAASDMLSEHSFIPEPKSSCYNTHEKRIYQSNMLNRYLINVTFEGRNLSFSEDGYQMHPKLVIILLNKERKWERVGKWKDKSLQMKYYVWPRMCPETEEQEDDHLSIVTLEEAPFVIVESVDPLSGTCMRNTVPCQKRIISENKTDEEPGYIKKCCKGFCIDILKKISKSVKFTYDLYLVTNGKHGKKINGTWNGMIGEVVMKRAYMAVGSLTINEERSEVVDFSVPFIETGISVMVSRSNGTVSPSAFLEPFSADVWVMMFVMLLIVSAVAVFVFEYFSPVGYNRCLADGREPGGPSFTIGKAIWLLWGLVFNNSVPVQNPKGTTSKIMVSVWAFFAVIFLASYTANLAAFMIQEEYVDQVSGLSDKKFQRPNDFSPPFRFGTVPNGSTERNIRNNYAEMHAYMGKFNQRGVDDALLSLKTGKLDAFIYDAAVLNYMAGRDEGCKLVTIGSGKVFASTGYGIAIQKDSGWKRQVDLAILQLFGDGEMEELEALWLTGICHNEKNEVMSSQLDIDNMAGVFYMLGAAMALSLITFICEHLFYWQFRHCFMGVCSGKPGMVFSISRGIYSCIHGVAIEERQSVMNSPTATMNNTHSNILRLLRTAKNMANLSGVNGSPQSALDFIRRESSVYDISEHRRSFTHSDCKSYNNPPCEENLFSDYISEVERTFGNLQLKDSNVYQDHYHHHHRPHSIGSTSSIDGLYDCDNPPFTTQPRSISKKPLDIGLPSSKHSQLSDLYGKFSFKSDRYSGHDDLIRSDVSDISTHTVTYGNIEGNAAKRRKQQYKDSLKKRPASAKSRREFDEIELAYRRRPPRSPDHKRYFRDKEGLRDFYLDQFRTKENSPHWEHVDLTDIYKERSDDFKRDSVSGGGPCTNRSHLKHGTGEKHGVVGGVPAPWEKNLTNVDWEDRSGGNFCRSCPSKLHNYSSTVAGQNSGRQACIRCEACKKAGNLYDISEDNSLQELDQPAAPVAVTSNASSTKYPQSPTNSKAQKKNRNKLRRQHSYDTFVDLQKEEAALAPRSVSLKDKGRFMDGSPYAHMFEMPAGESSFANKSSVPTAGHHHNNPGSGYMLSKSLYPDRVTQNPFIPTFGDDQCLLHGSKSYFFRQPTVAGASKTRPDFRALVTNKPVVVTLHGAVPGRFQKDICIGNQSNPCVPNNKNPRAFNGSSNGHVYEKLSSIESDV

Row | Compound | % Inh (NMDA receptor [3]) [%] | % Sti (NMDA receptor [2]) [%] | other results
1 | NCC(=O)O [Gly, glycine] | – | – | EC50 (NMDA receptor [1]): 56 nM and 58 nM
2 | CC[C@H](C)[C@H](NC(=O)[C@H](CC(C)C)NC(=O)[C@H](CCC(=O)O)NC(=O)[C@H](CCC(N)=O)NC(=O)[C@H](CC(N)=O)NC(=O)[C@H](CCC(=O)O)NC(=O)[C@H](CCC(N)=O)NC(=O)[C@H](CC(C)C)NC(=O)[C@H](CCC(=O)O)NC(=O)[C@H](CCC(=O)O)NC(=O)[C@H](CCC(=O)O)NC(=O)CNC(=O)[C@@H](N)Cc1ccc(O)cc1)C(=O)N[C@@H](CCCNC(=N)N)C(=O)N[C@@H](CCC(=O)O)C(=O)N[C@@H](CCCCN)C(=O)N[C@@H](CO)C(=O)N[C@@H](CC(N)=O)C(N)=O [Tyr^o-Glu3,4,7,10,14-Con-G] | 0 | – | stimulation of [3H]MK-801 binding in the absence of spermine (NMDA receptor [2]): stimulated; Emax (NMDA receptor [2]; read-out: % Sti): 31%; inhibition of spermine-induced [3H]MK-801 binding (NMDA receptor [3]): no inhibition
3 | CC[C@H](C)[C@H](NC(=O)[C@H](CC(C)C)NC(=O)[C@H](C)NC(=O)[C@H](CC(C)C)NC(=O)[C@H](C)NC(=O)[C@H](C)NC(=O)[C@H](CCC(N)=O)NC(=O)[C@H](CC(C)C)NC(=O)[C@H](CC(C(=O)O)C(=O)O)NC(=O)[C@H](CC(C(=O)O)C(=O)O)NC(=O)[C@H](CCC(=O)O)NC(=O)CN)C(=O)N[C@@H](CCCNC(=N)N)C(=O)N[C@@H](C)C(=O)N[C@@H](CCCCN)C(=O)N[C@@H](CO)C(=O)N[C@@H](CC(N)=O)C(N)=O [alpha helix ConG, GEggLQAALALJRAKSN] (HELM PEPTIDE1{G.E.[O=C(O)C(C[C@H](N[*:1])C(=O)[*:2])C(=O)O].[O=C(O)C(C[C@H](N[*:1])C(=O)[*:2])C(=O)O].L.Q.A.A.L.A.L.I.R.A.K.S.N.[am]}$$$$V2.0) | 100 | – | Emax (NMDA receptor [2]; read-out: % Sti): 0%; IC50 (NMDA receptor [3]; read-out: Spermine IC): 1500 nM
4 | CC[C@H](C)[C@H](NC(=O)[C@H](CC(C)C)NC(=O)[C@H](CC(C(=O)O)C(=O)O)NC(=O)[C@H](CCC(N)=O)NC(=O)[C@H](CC(N)=O)NC(=O)[C@H](Cc1cc(I)c(O)c(I)c1)NC(=O)[C@H](CCC(N)=O)NC(=O)[C@H](CC(C)C)NC(=O)[C@H](CC(C(=O)O)C(=O)O)NC(=O)[C@H](CC(C(=O)O)C(=O)O)NC(=O)[C@H](CCC(=O)O)NC(=O)CN)C(=O)N[C@@H](CCCNC(=N)N)C(=O)N[C@@H](CC(C(=O)O)C(=O)O)C(=O)N[C@@H](CCCCN)C(=O)N[C@@H](CO)C(=O)N[C@@H](CC(N)=O)C(N)=O [di-iodo-Tyr7-Con-G, GEggLQY(JI)NQgLIRgKSN] | 100 | – | Emax (NMDA receptor [2]; read-out: % Sti): 0%; IC50 (NMDA receptor [3]; read-out: Spermine IC): 500 nM
5 | Ac-GEggLQgNQgLIRgKSN [Ac-Con-G] | 0 | 0 | activity, inhibitory or stimulatory (NMDA receptor [2]): no apparent activity
6 | EEELQENQELIREKSN-NH2 [Glu3,4,7,10-Con-G(2-17)] | 70 | – | Emax (NMDA receptor [2]; read-out: % STI): 33%; Emax (NMDA receptor [2]; read-out: % Sti): 33%; % INH (NMDA receptor [3]): 70%; IC50 (NMDA receptor [3]; read-out: IC50): 5400 nM; IC50 (NMDA receptor [3]; read-out: Spermine IC): 5400 nM
7 | F(pC1)-GEggLQgNQgLIRgKSN (FGEXXLQXNQXLIRXKSN; N-terminal p-chloro-Phe; gamma-carboxyglutamate residues) [Phe(pCl)^o-Con-G] | 0 | 0 | –
8 | GEYgLQgNQgLIRgKSN [Tyr3-Con-G] | 0 | 0 | –
9 | GEgALQgNQgLJRgKSN (GEXALQXNQXLIRXKSN; gamma-carboxyglutamate residues) [Ala4-Con-G] | 0 | 0 | –
10 | GEgELQgNQgLJRgKSN (GEXELQXNQXLIRXKSN; gamma-carboxyglutamate residues) [Glu4-Con-G] | 0 | 0 | –
11 | GEgS(p)LQgNQgLIRgKSN (GEXSLQXNQXLIRXKSN; phosphoserine) [Ser(p)4-Con-G] | 0 | 0 | –
12 | GEgSLQgNQgLJRgKSN [Ser4-Con-G] | 0 | 0 | –
13 | GEggLQgNQgLIRgKSN-OH [Con-G-OH] | 0 | 0 | activity, inhibitory or stimulatory (NMDA receptor [2]): no activity
14 | QELIREKSN [Glul0,14-Con-G(9-17)] | 0 | 0 | –
15 | QENQELIREKSN [Glu 7,10,14-Con-G (6-17)] | 0 | 0 | –
16 | Y(oMe)-GEggLQgNQgLIRgKSN (YGEXXLQXNQXLIRXKSN; O-methyl tyrosine) [Tyr(oMe)^o-Con-G] | 0 | 0 | –
17 | Y(p)-GEggLQgNQgLIRgKSN (YGEXXLQXNQXLIRXKSN; phosphotyrosine) [Tyr(p)^o-Con-G] | 0 | 0 | –
18 | Y-GEggLQgNQgLIRgKSN [Tyr^o-Con-G] | 0 | 0 | –
